According to patent publication US20260297081A1, “COMPOUNDS AND METHODS OF TREATING CANCERS” (Cullgen Inc., priority 2023, published 2026):

Tests used:
Format in all cases: cell-based
MCF7 cells = test: Anti-proliferation (viability) of MCF7 cells (Table 7, FIG. 2B); settings: Homo sapiens, MCF7, MCF7 cells, 3-6 days, 10-point serial dilution; read-out: GI IC50 in MCF-7
CDK4 [1] = target: T1, CDK4 (Homo sapiens, UniProt P11802+Q16531); test: HiBiT detection of HiBiT-tagged CDK4 protein level in MCF7 cells, 16 hours (Table 8); design: expressed in transfected cells; host or cells: MCF7; settings: MCF7 cells stably expressing HiBiT tagged target proteins; for activity at 0.01 µM: 10 nM, read-out: % CDK4 Relative Level (10 nM); for activity at 0.1 µM: 100 nM, read-out: % CDK4 Relative Level (100 nM)
Description: HiBiT detection system quantitatively measures total amounts of HiBiT-tagged proteins using a luminescent based method. MCF7 cells stably expressing HiBiT tagged target proteins were treated with heterobifunctional compounds at indicated concentrations for 16 hours, then lysed with Nano-Glo HiBiT Lytic detection reagents.
Target sequence in this assay (P11802 whole entry): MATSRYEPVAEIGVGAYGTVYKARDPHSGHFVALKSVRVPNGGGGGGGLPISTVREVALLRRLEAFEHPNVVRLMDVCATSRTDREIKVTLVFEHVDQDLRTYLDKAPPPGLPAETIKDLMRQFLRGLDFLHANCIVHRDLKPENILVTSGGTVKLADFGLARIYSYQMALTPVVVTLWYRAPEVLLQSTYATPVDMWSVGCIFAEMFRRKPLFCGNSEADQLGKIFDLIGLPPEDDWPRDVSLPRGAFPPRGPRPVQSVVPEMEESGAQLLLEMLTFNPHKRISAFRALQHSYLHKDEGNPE
Target sequence in this assay (P24385 whole entry partner): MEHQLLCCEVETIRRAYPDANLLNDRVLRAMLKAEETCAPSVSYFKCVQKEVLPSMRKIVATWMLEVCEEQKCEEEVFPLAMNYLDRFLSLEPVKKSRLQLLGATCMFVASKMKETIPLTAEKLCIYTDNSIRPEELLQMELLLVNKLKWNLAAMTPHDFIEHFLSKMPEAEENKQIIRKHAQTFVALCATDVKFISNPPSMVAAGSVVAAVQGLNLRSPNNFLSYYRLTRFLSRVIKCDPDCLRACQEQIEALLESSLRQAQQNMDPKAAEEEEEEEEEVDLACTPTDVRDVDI
Target sequence in this assay (Q16531 2-1140 limits assumed): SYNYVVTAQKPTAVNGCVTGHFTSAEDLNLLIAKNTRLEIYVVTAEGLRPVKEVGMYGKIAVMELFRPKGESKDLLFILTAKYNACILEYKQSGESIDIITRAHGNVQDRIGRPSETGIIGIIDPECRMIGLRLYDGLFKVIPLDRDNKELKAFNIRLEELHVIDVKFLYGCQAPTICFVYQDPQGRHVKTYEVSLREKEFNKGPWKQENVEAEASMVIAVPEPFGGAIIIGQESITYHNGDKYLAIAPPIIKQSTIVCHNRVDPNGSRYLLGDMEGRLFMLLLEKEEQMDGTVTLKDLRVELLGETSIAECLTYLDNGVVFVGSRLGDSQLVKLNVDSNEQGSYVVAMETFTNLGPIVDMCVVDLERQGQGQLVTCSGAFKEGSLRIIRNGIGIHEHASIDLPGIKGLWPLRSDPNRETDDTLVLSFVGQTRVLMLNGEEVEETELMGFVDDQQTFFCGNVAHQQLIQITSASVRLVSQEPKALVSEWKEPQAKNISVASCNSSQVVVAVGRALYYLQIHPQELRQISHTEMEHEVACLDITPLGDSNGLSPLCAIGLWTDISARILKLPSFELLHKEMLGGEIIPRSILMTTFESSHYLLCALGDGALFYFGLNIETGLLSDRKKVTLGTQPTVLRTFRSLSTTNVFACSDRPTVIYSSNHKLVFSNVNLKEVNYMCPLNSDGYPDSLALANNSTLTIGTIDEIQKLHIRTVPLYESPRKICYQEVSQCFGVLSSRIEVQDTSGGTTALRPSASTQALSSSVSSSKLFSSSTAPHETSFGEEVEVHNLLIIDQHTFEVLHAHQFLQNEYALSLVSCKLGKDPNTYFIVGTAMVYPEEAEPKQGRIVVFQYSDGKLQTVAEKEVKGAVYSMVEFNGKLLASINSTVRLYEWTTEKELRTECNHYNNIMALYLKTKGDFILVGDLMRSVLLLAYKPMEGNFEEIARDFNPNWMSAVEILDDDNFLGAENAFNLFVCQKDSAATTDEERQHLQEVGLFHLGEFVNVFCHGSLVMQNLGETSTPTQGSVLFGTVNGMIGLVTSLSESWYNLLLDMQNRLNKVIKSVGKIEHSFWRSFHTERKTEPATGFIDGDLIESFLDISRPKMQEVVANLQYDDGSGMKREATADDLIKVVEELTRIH

CDK4 [2] = target: T1, CDK4; test: CDK4 percentage degradation in Calu-1 cells (Table 6); design: Cells that express cyclin D1-3 and CDK4/6 proteins were treated with heterobifunctional compounds; endogenous in cells; host or cells: Calu-1; settings: 16 hours; for inhibition at 0.04 µM: 40 nM; for inhibition at 0.2 µM: 200 nM
How it was run: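 Percentage degradation of Cyclin D1 and CDK4 derived from densitometry of ECL Western blots on lysates of Calu-1 cells. Treatment was 16 h with compound at either 40 nM or 200 nM.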
Target sequence in this assay (P11802 2-303 limits assumed): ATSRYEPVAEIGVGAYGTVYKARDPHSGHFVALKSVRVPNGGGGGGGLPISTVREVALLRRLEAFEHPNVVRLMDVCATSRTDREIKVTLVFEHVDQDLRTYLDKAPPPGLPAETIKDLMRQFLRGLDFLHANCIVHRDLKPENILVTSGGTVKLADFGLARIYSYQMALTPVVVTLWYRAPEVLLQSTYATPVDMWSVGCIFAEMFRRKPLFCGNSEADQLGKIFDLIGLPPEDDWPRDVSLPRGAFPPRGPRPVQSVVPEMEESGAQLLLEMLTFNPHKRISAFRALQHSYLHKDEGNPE
Target sequence in this assay (P24385 whole entry partner): as the sequence (P24385 whole entry partner) above
Target sequence in this assay (Q16531 2-1140 limits assumed): as the sequence (Q16531 2-1140 limits assumed) above

| IC50 (MCF7 cells) | activity at 0.01 µM (CDK4 [1]) | activity at 0.1 µM (CDK4 [1]) | inhibition at 0.04 µM (CDK4 [2]) | inhibition at 0.2 µM (CDK4 [2]) | Compound |
| --- | --- | --- | --- | --- | --- |
| < 50 nM | 55 to 85% | 55 to 85% | < 30% | < 30% | CC(=O)c1c(C)c2cnc(Nc3ccc(N4CCN(CCC(=O)N5CCC(Nc6nc(NC(C)C)ccc6C(=O)Nc6ccc(N(C)C)nn6)CC5)CC4)cn3)nc2n(C2CCCC2)c1=O [CPD-301, 2-((1-(3-(4-(6-((6-acetyl-8-cyclopentyl-5-methyl-7-oxo-7,8-dihydropyrido[2,3-d]pyrimidin-2-yl)amino)pyridin-3-yl)piperazin-1-yl)propanoyl)piperidin-4-yl)amino)-N-(6-(dimethylamino)pyridazin-3-yl)-6-(isopropylamino)nicotinamide] |
| < 50 nM | 55 to 85% | 55 to 85% | < 30% | < 30% | CC(=O)c1c(C)c2cnc(Nc3ccc(N4CCN(CCC(=O)N5CC6(CC(Nc7nc(NC(C)C)ccc7C(=O)Nc7cc(C)n(C)n7)C6)C5)CC4)cn3)nc2n(C2CCCC2)c1=O [CPD-302, 2-((2-(3-(4-(6-((6-acetyl-8-cyclopentyl-5-methyl-7-oxo-7,8-dihydropyrido[2,3-d]pyrimidin-2-yl)amino)pyridin-3-yl)piperazin-1-yl)propanoyl)-2-azaspiro[3.3]heptan-6-yl)amino)-N-(1,5-dimethyl-1H-pyrazol-3-yl)-6-(isopropylamino)nicotinamide] |
| > 100 nM | 55 to 85% | 55 to 85% | – | – | CNc1ccc(C(=O)Nc2ccc(N(C)C)nn2)c(NCCCCCCNC(=O)CN2CCN(c3ccc(Nc4ncc5cc(C(=O)N(C)C)n(C6CCCC6)c5n4)nc3)CC2)n1 [CPD-628, 7-cyclopentyl-2-((5-(4-(2-((6-((3-((6-(dimethylamino)pyridazin-3-yl)carbamoyl)-6-(methylamino)pyridin-2-yl)amino)hexyl)amino)-2-oxoethyl)piperazin-1-yl)pyridin-2-yl)amino)-N,N-dimethyl-7H-pyrrolo[2,3-d]pyrimidine-6-carboxamide] |
| > 100 nM | 55 to 85% | 55 to 85% | – | – | CNc1ccc(C(=O)Nc2ccc(N(C)C)nn2)c(NCCCCCCCNC(=O)CN2CCN(c3ccc(Nc4ncc5cc(C(=O)N(C)C)n(C6CCCC6)c5n4)nc3)CC2)n1 [CPD-629, 7-cyclopentyl-2-((5-(4-(2-((7-((3-((6-(dimethylamino)pyridazin-3-yl)carbamoyl)-6-(methylamino)pyridin-2-yl)amino)heptyl)amino)-2-oxoethyl)piperazin-1-yl)pyridin-2-yl)amino)-N,N-dimethyl-7H-pyrrolo[2,3-d]pyrimidine-6-carboxamide] |
| > 100 nM | 55 to 85% | 55 to 85% | – | – | CNc1ccc(C(=O)Nc2ccc(N(C)C)nn2)c(NCCCCCCCCNC(=O)CN2CCN(c3ccc(Nc4ncc5cc(C(=O)N(C)C)n(C6CCCC6)c5n4)nc3)CC2)n1 [CPD-630, 7-cyclopentyl-2-((5-(4-(2-((8-((3-((6-(dimethylamino)pyridazin-3-yl)carbamoyl)-6-(methylamino)pyridin-2-yl)amino)octyl)amino)-2-oxoethyl)piperazin-1-yl)pyridin-2-yl)amino)-N,N-dimethyl-7H-pyrrolo[2,3-d]pyrimidine-6-carboxamide] |
| > 100 nM | 55 to 85% | > 85% | – | – | CNc1ccc(C(=O)Nc2ccc(N(C)C)nn2)c(NCCCC(=O)N2CCN(c3ccc(Nc4ncc5cc6n(c5n4)C4(CCCCC4)CNC6=O)nc3)CC2)n1 [CPD-633, N-(6-(dimethylamino)pyridazin-3-yl)-6-(methylamino)-2-((4-oxo-4-(4-(6-((6′-oxo-7′,8′-dihydro-6′H-spiro[cyclohexane-1,9′-pyrazino[1′,2′:1,5]pyrrolo[2,3-d]pyrimidin]-2′-yl)amnion)pyridin-3-yl)piperazin-1-yl)butyl)amino)nicotinamide] |
| > 100 nM | 55 to 85% | 55 to 85% | – | – | CNc1ccc(C(=O)Nc2ccc(N(C)C)nn2)c(NCCCCC(=O)N2CCN(c3ccc(Nc4ncc5cc6n(c5n4)C4(CCCCC4)CNC6=O)nc3)CC2)n1 [CPD-634, N-(6-(dimethylamino)pyridazin-3-yl)-6-(methylamino)-2-((5-oxo-5-(4-(6-((6′-oxo-7′,8′-dihydro-6′H-spiro[cyclohexane-1,9′-pyrazino[1′,2′:1,5]pyrrolo[2,3-d]pyrimidin]-2′-yl)amino)pyridin-3-yl)piperazin-1-yl)pentyl)amino)nicotinamide] |
| > 100 nM | 55 to 85% | 55 to 85% | – | – | CNc1ccc(C(=O)Nc2ccc(N(C)C)nn2)c(NCCCCCC(=O)N2CCN(c3ccc(Nc4ncc5cc6n(c5n4)C4(CCCCC4)CNC6=O)nc3)CC2)n1 [CPD-635, N-(6-(dimethylamino)pyridazin-3-yl)-6-(methylamino)-2-((6-oxo-6-(4-(6-((6′-oxo-7′,8′-dihydro-6′H-spiro[cyclohexane-1,9′-pyrazino[1′,2′:1,5]pyrrolo[2,3-d]pyrimidin]-2′-yl)amino)pyridin-3-yl)piperazin-1-yl)hexyl)amino)nicotinamide] |
| > 100 nM | 55 to 85% | 55 to 85% | – | – | CNc1ccc(C(=O)Nc2ccc(N(C)C)nn2)c(NCCCCCCC(=O)N2CCN(c3ccc(Nc4ncc5cc6n(c5n4)C4(CCCCC4)CNC6=O)nc3)CC2)n1 [CPD-636, N-(6-(dimethylamino)pyridazin-3-yl)-6-(methylamino)-2-((7-oxo-7-(4-(6-((6′-oxo-7′,8′-dihydro-6′H-spiro[cyclohexane-1,9′-pyrazino[1′,2′:1,5]pyrrolo[2,3-d]pyrimidin]-2′-yl)amino)pyridin-3-yl)piperazin-1-yl)heptyl)amino)nicotinamide] |
| > 100 nM | > 85% | > 85% | – | – | CNc1ccc(C(=O)Nc2ccc(N(C)C)nn2)c(NCCOCCOCCC(=O)N2CCN(c3ccc(Nc4ncc5cc6n(c5n4)C4(CCCCC4)CNC6=O)nc3)CC2)n1 [CPD-639, N-(6-(dimethylamino)pyridazin-3-yl)-6-(methylamino)-2-((2-(2-(3-oxo-3-(4-(6-((6′-oxo-7′,8′-dihydro-6′H-spiro[cyclohexane-1,9′-pyrazino[1′,2′:1,5]pyrrolo[2,3-d]pyrimidin]-2′-yl)amino)pyridin-3-yl)piperazin-1-yl)propoxy)ethoxy)ethyl)amino)nicotinamide] |
| > 100 nM | 55 to 85% | 55 to 85% | – | – | CNc1ccc(C(=O)Nc2ccc(N(C)C)nn2)c(NCCCCNC(=O)CN2CCN(c3ccc(Nc4ncc5cc6n(c5n4)C4(CCCCC4)CNC6=O)nc3)CC2)n1 [CPD-642, N-(6-(dimethylamino)pyridazin-3-yl)-6-(methylamino)-2-((4-(2-(4-(6-((6′-oxo-7′,8′-dihydro-6′H-spiro[cyclohexane-1,9′-pyrazino[1′,2′:1,5]pyrrolo[2,3-d]pyrimidin]-2′-yl)amino)pyridin-3-yl)piperazin-1-yl)acetamido)butyl)amino)nicotinamide] |
| > 100 nM | > 85% | 55 to 85% | – | – | CNc1ccc(C(=O)Nc2ccc(N(C)C)nn2)c(NCCCCCNC(=O)CN2CCN(c3ccc(Nc4ncc5cc6n(c5n4)C4(CCCCC4)CNC6=O)nc3)CC2)n1 [CPD-643] |
| > 100 nM | > 85% | > 85% | – | – | CNc1ccc(C(=O)Nc2ccc(N(C)C)nn2)c(NCCCCCCNC(=O)CN2CCN(c3ccc(Nc4ncc5cc6n(c5n4)C4(CCCCC4)CNC6=O)nc3)CC2)n1 [CPD-644, N-(6-(dimethylamino)pyridazin-3-yl)-6-(methylamino)-2-((6-(2-(4-(6-((6′-oxo-7′,8′-dihydro-6′H-spiro[cyclohexane-1,9′-pyrazino[1′,2′:1,5]pyrrolo[2,3-d]pyrimidin]-2′-yl)amino)pyridin-3-yl)piperazin-1-yl)acetamido)hexyl)amino)nicotinamide] |
| > 100 nM | > 85% | > 85% | – | – | CNc1ccc(C(=O)Nc2ccc(N(C)C)nn2)c(NCCCCCCCNC(=O)CN2CCN(c3ccc(Nc4ncc5cc6n(c5n4)C4(CCCCC4)CNC6=O)nc3)CC2)n1 [CPD-645, N-(6-(dimethylamino)pyridazin-3-yl)-6-(methylamino)-2-((7-(2-(4-(6-((6′-oxo-7′,8′-dihydro-6′H-spiro[cyclohexane-1,9′-pyrazino[1′,2′:1,5]pyrrolo[2,3-d]pyrimidin]-2′-yl)amino)pyridin-3-yl)piperazin-1-yl)acetamido)heptyl)amino)nicotinamide] |
| > 100 nM | > 85% | > 85% | – | – | CNc1ccc(C(=O)Nc2ccc(N(C)C)nn2)c(NCCCCCCCCNC(=O)CN2CCN(c3ccc(Nc4ncc5cc6n(c5n4)C4(CCCCC4)CNC6=O)nc3)CC2)n1 [CPD-646, N-(6-(dimethylamino)pyridazin-3-yl)-6-(methylamino)-2-((8-(2-(4-(6-((6′-oxo-7′,8′-dihydro-6′H-spiro[cyclohexane-1,9′-pyrazino[1′,2′:1,5]pyrrolo[2,3-d]pyrimidin]-2′-yl)amino)pyridin-3-yl)piperazin-1-yl)acetamido)octyl)amino)nicotinamide] |
